Measured values reported in patent US20200308619A1, “GENE CONSTRUCT AND BIOSENSOR FOR THE RAPID DETECTION OF AHL MOLECULES AND THE PATHOGENIC BACTERIA THAT PRODUCE SAME” (UNIVERSIDAD DE VALPARAISO, priority 2017, published 2020).

System: E. coli pUCPAO1RHL biosensor strain
Test: Biosensor fluorescence emission (GFP) in response to AHL extract and copper
Assay type: cell-based, Escherichia coli
Conditions: copper by itself, no AHL
Experimental: The biosensing strain named E. coli pUCPAO1RHL that contains the gene construct of the invention, was used to evaluate its response to the presence of AHLs and the presence of copper. For the evaluation, AHLs were obtained from the bacterium Pseudomonas aeruginosa from a 12-hour bacterial culture in late exponential phase. For this, the supernatant was separated from the bacterial cells by centrifugation at 8,000 rpm for 15 minutes. An organic extraction with dichloromethane (DCM) from the supernatant was performed in a ratio of 70:30 (Supernatant: DCM). For this, 200 ml of supernatant and 85 ml of DCM were incorporated into a […] volume decantation flask. It was stirred vigorously, then left to settle at room temperature for 1 hour. […]
The biosensor strain (180 μL) was grown in the presence of 10 μL of AHL extract (obtained from the stationary phase of growth of P. aeruginosa) and in the presence of 500 μM of copper (such as CuSO4) in Luria Bertani liquid medium at 37° C. stirred in 96-well plates on a temperature controlled orbital shaker spectrofluorometer equipment (Tecan USA). During growth, turbidity was recorded at an absorbance of 600 nm and fluorescence at […] every 15 minutes, equivalent to one cycle of fluorescence emission measurement. […]

## O=S(=O)([O-])[O-].[Cu+2] [copper, CuSO4]
  inducing effect on fluorescence: did not show an obvious inducing effect of fluorescence
